Read-outs that look alike come from different tables or passages of the source.
System: mucous membrane (HET-CAM)
Assay: Mucous membrane compatibility, in vitro HET-CAM test, reaction time method
Method: Mucous membrane compatibility was evaluated by the in vitro HET-CAM test using the reaction time method (conc. 5% in 2×-distilled water, pH=6).

[1] = conc. 5% in 2×-distilled water, pH=6

Row | Substance | Evaluation [1] | Irritation value Q [1] | Irritation value Q | Evaluation
1 | mono-C12-glycerol ether carboxylic acid [Example 1] | Slightly irritating | 0.76 |  | 
2 | mono-C12-glycerol ether+4EO ether carboxylic acid [Example 2] |  |  | 0.00 | 
3 | Sodium Laureth Sulfate [Texapon ASV] |  |  | 1.0 | Moderately

From patent US20050020854A1, “Alkyl(en)ylglycerinether carboxylic acids” (priority 2001, published 2005)
